Results: BindingDB's records for doi:10.1016/j.bmcl.2004.12.073 (Vernalis (R&D), 2005)

Biological target: Cyclin-A2/Cyclin-dependent kinase 2 (Homo sapiens, UniProt P24941)
Assay: CDK Inhibition Assay
Settings: pH 7.5; 22 °C
Experimental: In vitro kinase assay using purified CDK2/Cyclin A was incubated at room temperature with substrate, and test compounds in the presence of 100 uM ATP/ [gamma-33P] ATP. Assays were performed in 96-well polypropylene plates. 33P incorporation into substrate was measured using a scintillation counter.

Q: With `CC(C)c1cnn2c(Nc3ccc(S(C)(=O)=O)cc3)cc(Cl)nc12` [5-chloro-N-(4-methanesulfonylphenyl)-3-(propan-2-yl)pyrazolo[1,5-a]pyrimidin-7-amine] as the molecule, how does the IC50 read?
A: 230 nM
